pKd: −log10 of the molar value.
Biological target: T1, P protein from T. maritima (Thermotoga maritima, UniProt Q9X1H4)
T1 construct: GST (cleaved yes); made in house; host or cells: E. coli BL21(DE3)pLysS
T1 sequence (Q9X1H4 1-117): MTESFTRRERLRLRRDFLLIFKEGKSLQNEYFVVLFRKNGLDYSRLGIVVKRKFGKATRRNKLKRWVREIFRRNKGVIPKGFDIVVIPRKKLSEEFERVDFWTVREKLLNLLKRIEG
Assay: Biolayer interferometry binding to immobilized His-tagged P protein
Conditions: BLI, P protein on Ni-NTA, 1:1 Langmuir model
Protocol: Immobilization of the His-tagged P protein from T. maritima at 0.05 mg/ml (3.4 μM) was performed on Ni-NTA biosensors. For the initial binding tests to the P protein, a compound concentration of 1 mM was used. Periods for each step of the assay were as follows: immobilization (400 s), wash (100 s), baseline establishment (100s), association (250 s), dissociation (250 s). For each titration curve, […] were used corresponding to the 125, 62.5, 31.25, 15.6 and 7.8 μM compound concentrations. Control biosensors were used to subtract non-specific binding of compounds to the biosensor surface. […] Kinetic binding parameters were calculated using Data Analysis 8.2 (ForteBio, Inc.). […]
Figure 5. […] Association and dissociation of the 5′ RNA leader to the P protein (TmP) is measured over time. […] P protein was immobilized on Ni-NTA biosensors after which its association and dissociation from indicated compounds were monitored. […] (C) Location of purpurin (green) on the T. maritima P protein as determined by X-ray crystallography (PDB code: 6MAX; see Supplementary Figure S19 and Supplementary Table S2). […]
Supplementary Figure 15. […] The pre-tRNA in buffer HAAMD (20 mM HEPES pH 7.4, 100 mM ammonium acetate, 10 mM MgCl2, 5% DMSO or 5% PEG 200) was measured against RNase P in concentrations ranging from 62.5 to 7.8 nM in a two-fold dilution series. […]

## O=C1c2ccccc2C(=O)c2c(O)c(O)cc(O)c21 [Purpurin, 1,2,4-trihydroxyanthraquinone]
  pKd: 5.17

Source: paper PMC6614837 (Nucleic Acids Research, 2019)
